Data reported in article PMC10307035, “Antiviral activity of singlet oxygen-photogenerating perylene compounds against SARS-CoV-2: Interaction with the viral envelope and photodynamic virion inactivation” (Virus Research, 2023).

Experiments:
[1] = system: SARS-CoV-2 (Wuhan variant); assay: Quantification of viral RNA synthesis by RT-qPCR; assay type: cell-based; conditions: 10 µM, Vero cells, 48 h
[2] = system: SARS-CoV-2 (Wuhan variant); assay: Viral membrane interaction study (virus pre-treatment at 37 °C or 4 °C); assay type: cell-based; conditions: 10 µM; for virus' viability after pre-treatment at 4 °C (assay B): 1 h at 4 °C; for virus' ability to form plaques after pre-treatment at 37 °C (assay A): 1 h at 37 °C
[3] = system: SARS-CoV-2 (Wuhan variant); assay: Fusion assay; conditions: for reduction in plaque numbers (fusion assay): 1 and 10 µM, compounds added after virus attachment at 4 °C, then 37 °C

| SMILES | synthesis of viral genomic RNA [1] | virus' viability after pre-treatment at 4 °C (assay B) [2] | virus' ability to form plaques after pre-treatment at 37 °C (assay A) [2] | reduction in plaque numbers (fusion assay) [3] | cytotoxicity to Vero cells in the fusion assay ([3]; 10 µM) |
| --- | --- | --- | --- | --- | --- |
| O=c1[nH]c(=O)n([C@H]2C[C@H](O)[C@@H](CO)O2)cc1C#Cc1ccc2c3cccc4cccc(c5cccc1c52)c43 [Compound 2, 5-(perylen-3-yl)ethynyl-2′-deoxy-uridine] | suppressed the synthesis of viral genomic RNA | partially restored | completely inhibited | significantly decreased plaque counts only at 10 µM |  |
| CC(C)(C)C(=O)OCn1c(=O)c(C#Cc2ccc3c4cccc5cccc(c6cccc2c63)c54)cn(CC(=O)N(CCO)CCO)c1=O [Compound 13] | suppressed the synthesis of viral genomic RNA | partially restored | completely inhibited | statistically significant reduction in plaque numbers |  |
| O=C(NCCCCO)c1ccc(-c2ccc3c4cccc5cccc(c6cccc2c63)c54)s1 [Compound 17] | suppressed the synthesis of viral genomic RNA | partially restored | completely inhibited | statistically significant reduction in plaque numbers | observable cytotoxicity |
